Test results reported in PubChem BioAssay (NCI).
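Values below derive from 48-hour exposures of cells grown in 96-well plates, with endpoints linearly interpolated between the two concentrations bracketing the appropriate inhibition level. Definition used: TGI = concentration required for complete inhibition of growth.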

Experiments:
Experiment in all cases: NCI tumour cell line growth inhibition, 48 h
[1] = tested on: LOX IMVI melanoma
[2] = tested on: M19-MEL melanoma
[3] = tested on: SF-295 CNS
[4] = tested on: EKVX NSCLC
[5] = tested on: HCT-116 colon
[6] = tested on: MOLT-4 leukemia
[7] = tested on: HOP-62 NSCLC
[8] = tested on: DLD-1 colon
[9] = tested on: SK-MEL-5 melanoma
[10] = tested on: SW-620 colon
[11] = tested on: A549 NSCLC
[12] = tested on: OVCAR-4 ovarian
[13] = tested on: UO-31 renal
[14] = tested on: A498 renal
[15] = tested on: COLO 205 colon
[16] = tested on: IGROV1 ovarian
[17] = tested on: HCC-2998 colon
[18] = tested on: NCI-H460 lung
[19] = tested on: NCI-H522 lung
[20] = tested on: P388/ADR leukemia
[21] = tested on: OVCAR-8 ovarian
[22] = tested on: HOP-18 NSCLC
[23] = tested on: OVCAR-3 ovarian
[24] = tested on: HL-60(TB) leukemia
[25] = tested on: K-562 leukemia
[26] = tested on: SK-OV-3 ovarian
[27] = tested on: CAKI-1 renal
[28] = tested on: CCRF-CEM leukemia
[29] = tested on: SK-MEL-28 melanoma
[30] = tested on: DMS 273 small cell lung
[31] = tested on: RPMI-8226 leukemia
[32] = tested on: KM12 colon
[33] = tested on: U251 CNS
[34] = tested on: OVCAR-5 ovarian
[35] = tested on: UACC-62 melanoma
[36] = tested on: RXF 393 renal
[37] = tested on: SF-539 CNS
[38] = tested on: SN12C renal
[39] = tested on: NCI/ADR-RES ovarian
[40] = tested on: SK-MEL-2 melanoma
[41] = tested on: HOP-92 NSCLC
[42] = tested on: XF 498 CNS
[43] = tested on: SN12K1 renal
[44] = tested on: SNB-75 CNS
[45] = tested on: SNB-78 CNS
[46] = tested on: HCT-15 colon
[47] = tested on: SNB-19 CNS
[48] = tested on: SF-268 CNS
[49] = tested on: MALME-3M melanoma
[50] = tested on: MCF7 breast
[51] = tested on: KM20L2 colon
[52] = tested on: NCI-H226 lung
[53] = tested on: P388 leukemia
[54] = tested on: UACC-257 melanoma
[55] = tested on: HT29 colon
[56] = tested on: DMS 114 small cell lung

Structure (SMILES): O=C1C=C2SC3C[C@@]24CC1[N+]1=c2c4c(c(O)c4c2=C(C=N4)CC1)N3
- TGI [1]: 6.65 µM
- TGI [2]: 3.44 µM
- TGI [3]: 11.6 µM
- TGI [4]: 4.8 µM
- TGI [5]: 3.35 µM
- TGI [6]: 4.11 µM
- TGI [7]: 32.6 µM
- TGI [8]: 5.12 µM
- TGI [9]: 3.44 µM
- TGI [10]: 5.44 µM
- TGI [11]: 21.2 µM
- TGI [12]: 3.13 µM
- TGI [13]: 30.3 µM
- TGI [14]: 16.6 µM
- TGI [15]: 3.57 µM
- TGI [16]: 6.48 µM
- TGI [17]: 6.78 µM
- TGI [18]: 9.03 µM
- TGI [19]: 2.99 µM
- TGI [20]: 23.1 µM
- TGI [21]: 4.21 µM
- TGI [22]: 18.9 µM
- TGI [23]: 2.51 µM
- TGI [24]: 3.78 µM
- TGI [25]: 8.26 µM
- TGI [26]: 7 µM
- TGI [27]: 7.99 µM
- TGI [28]: > 100 µM
- TGI [29]: 4.09 µM
- TGI [30]: 4.12 µM
- TGI [31]: 7.38 µM
- TGI [32]: 4.74 µM
- TGI [33]: 3.33 µM
- TGI [34]: 3.9 µM
- TGI [35]: 3.23 µM
- TGI [36]: 3.84 µM
- TGI [37]: 3.34 µM
- TGI [38]: 6.95 µM
- TGI [39]: 16.1 µM
- TGI [40]: 3.35 µM
- TGI [41]: > 100 µM
- TGI [42]: 3.34 µM
- TGI [43]: 3.76 µM
- TGI [44]: 12.2 µM
- TGI [45]: 5.88 µM
- TGI [46]: 13.7 µM
- TGI [47]: 9.66 µM
- TGI [48]: 2.9 µM
- TGI [49]: 3.3 µM
- TGI [50]: 4.23 µM
- TGI [51]: 3.81 µM
- TGI [52]: 4.76 µM
- TGI [53]: 4.15 µM
- TGI [54]: 3.17 µM
- TGI [55]: > 26 µM
- TGI [56]: 2.85 µM
